US11279966B2, “Method for identifying compound for inhibiting an activity of a histone lysine demethylase” (NATIONAL TSING HUA UNIVERSITY, priority 2014, dated 2022)

Columns and labels:
KDM4A = target: T1, KDM4A (Homo sapiens, UniProt O75164); test: Formaldehyde dehydrogenase-coupled demethylase assay, KDM4A; type: biochemical; set-up: Demethylase Residual Activity (%): concentration or dose not given beside the values; conditions: for Demethylase Residual Activity (%): FDH-coupled assay
T1 construct: Human KDM4B 1-348 and KDM4A 1-347 were PCR amplified; His6 (N); made in house; host or cells: Escherichia coli BL21 (DE3)
T1 sequence (O75164 1-347): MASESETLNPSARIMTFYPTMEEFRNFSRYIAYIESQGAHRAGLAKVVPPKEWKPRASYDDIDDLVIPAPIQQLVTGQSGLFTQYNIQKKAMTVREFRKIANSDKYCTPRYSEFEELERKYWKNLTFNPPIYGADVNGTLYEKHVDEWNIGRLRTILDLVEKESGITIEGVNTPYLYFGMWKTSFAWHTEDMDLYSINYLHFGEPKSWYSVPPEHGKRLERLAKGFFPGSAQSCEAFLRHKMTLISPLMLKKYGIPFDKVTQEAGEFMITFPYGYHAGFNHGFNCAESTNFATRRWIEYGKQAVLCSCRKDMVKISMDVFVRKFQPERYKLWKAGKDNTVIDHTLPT

[1] = target: T2, FDH (formaldehyde dehydrogenase) (Pseudomonas putida, UniProt P46154); test: FDH residual activity (control for the coupling enzyme); type: biochemical; set-up: concentration or dose not given beside the values
T2 construct: purchased Sigma
T2 sequence (P46154 1-399): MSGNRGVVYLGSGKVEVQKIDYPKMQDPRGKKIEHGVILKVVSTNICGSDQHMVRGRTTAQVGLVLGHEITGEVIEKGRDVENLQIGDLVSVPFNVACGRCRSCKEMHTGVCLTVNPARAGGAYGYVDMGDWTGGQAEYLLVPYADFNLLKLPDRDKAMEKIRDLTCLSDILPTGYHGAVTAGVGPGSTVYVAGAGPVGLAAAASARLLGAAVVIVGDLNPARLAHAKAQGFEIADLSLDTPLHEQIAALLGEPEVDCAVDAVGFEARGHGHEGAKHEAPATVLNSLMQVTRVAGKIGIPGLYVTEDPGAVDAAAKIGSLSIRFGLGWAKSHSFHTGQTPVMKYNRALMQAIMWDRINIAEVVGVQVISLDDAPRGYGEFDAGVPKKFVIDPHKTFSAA

in vitro = type: cell-based; conditions: human
Description: (§1) LNCaP cells are infected with lentivirus with control shRNA (control) and shKDM4A or shKDM4B as indicated (left panel). The qRT-PCR analysis is performed to evaluate the expression of KDM4s (right panel). […] LNCaP cells are treated with 1,5-bis[(E)-2-(3,4-dichlorophenyl) ethenyl]-2,4-dinitrobenzene for three days, and the viability is measured by viable cell count. SD is derived from biological triplicates. The level of H3K9me3 of 1,5-bis[(E)-2-(3,4-dichlorophenyl)ethenyl]-2,4-dinitrobenzene-treated cells (24 hr) is detected and quantified by AlphaView SA (Cell Biosciences Inc.). The level of H3K9me3 is shown by bar graph.
Primary PrEC cells were purchased from Clonetics (Walkersville, Md.) and cultured in serum-free prostate epithelial cell growth medium following the vendor's directions. Cell lines RWPE1, LNCaP (LNCaP-FGC), CWR22Rv1 (22Rv1), VCaP, DU145, PC3 (all purchased from ATCC), and PNT2 (Sigma Aldrich, MO), were cultured under condition as recommended. CWR-R1 cell (40) and LNCaP derived C4-2, C4-2B cells were cultured in RPMI1640 medium containing 10% FBS.

LNCaP cells [2] = test: Flow cytometric analysis of DNA content (sub-G1, apoptosis) in LNCaP cells; type: cell-based, human; conditions: 50 μM, 3 days; mock 11.9%
Description: as §1
(§2) Total cell lysates were obtained by lysing the cell with buffer (50 mM Tris-HCl pH7.5, 150 mM NaCl, 0.5% Triton X-100, 10% glycerol, 1 mM EDTA, protease inhibitors) for 15 min on ice, followed by 10 min of sonication cycle (30 sec on, 30 sec off) on ice. The level of total histone H3 and trimethylated histone H3 Lys9 was analyzed by western blotting using anti-histone H3 and anti-H3K9me3 antibodies (Abcam, MA). Cells treated with mock and the inhibitor were harvested and fixed by 70% ethanol for >4 hours at −20° C., followed by propidium iodide (Sigma Aldrich) staining. The DNA content was analyzed by Becton Dickinson FACScan flow cytometry, and the sub-G1 population was quantified by WinMDI 2.9.

H3K9me3 in LNCaP cells = test: Cellular level of H3K9me3 in LNCaP cells, immunoblotting; type: cell-based, human
Description: as §1, §2

LNCaP cells [3] = test: Microarray gene expression analysis of treated LNCaP cells; type: cell-based, human; conditions: 3 days
Description: LNCaP cells treated with mock and the 1,5-bis[(E)-2-(3,4-dichlorophenyl) ethenyl]-2,4-dinitrobenzene inhibitor for 3 days were harvested and the total RNA was extracted using Trizol reagent (Life Technologies, NY). Microarray analysis was performed by the University of California Davis Cancer Center Gene Expression Resource, using Affymetrix Human Genome U133A (HG-U133A) GeneChip arrays (Affymetrix, CA), which permit expression analysis of the entire Genbank RefSeq database. Array scanning and generation of raw signal data files were done with GeneChip Operating Software (Affymetrix). Subsequent data analysis was done by GeneSpring (Agilent Technologies, CA) and DAVID Bioinformatic Resources 6.7 (NIH).

KDM4B = target: T3, KDM4B (Homo sapiens, UniProt O94953); test: Formaldehyde dehydrogenase-coupled demethylase assay, KDM4B; type: biochemical; set-up: concentration or dose not given beside the values; conditions: FDH-coupled assay
T3 construct: Human KDM4B 1-348 and KDM4A 1-347 were PCR amplified; His6 (N); made in house; host or cells: Escherichia coli BL21 (DE3)
T3 sequence (O94953 1-348): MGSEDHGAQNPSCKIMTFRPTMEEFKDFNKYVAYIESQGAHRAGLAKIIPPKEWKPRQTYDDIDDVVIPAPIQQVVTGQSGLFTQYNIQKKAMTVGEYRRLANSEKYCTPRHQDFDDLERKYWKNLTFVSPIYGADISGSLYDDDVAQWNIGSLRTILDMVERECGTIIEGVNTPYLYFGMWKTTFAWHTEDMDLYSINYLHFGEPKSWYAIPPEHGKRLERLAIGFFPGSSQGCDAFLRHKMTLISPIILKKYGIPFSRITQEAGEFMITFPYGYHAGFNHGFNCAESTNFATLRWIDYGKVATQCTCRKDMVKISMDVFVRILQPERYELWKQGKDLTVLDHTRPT

KDM4A/KDM4B [4] = conditions: calf thymus histones as substrate
HeLa cells = conditions: read-out: cytotoxic IC50 in HeLa cells; cited from earlier work
KDM4A/KDM4B [5] = test: KDM4A/KDM4B inhibitory assay, results stated in words; type: biochemical, human
Description: Formaldehyde dehydrogenase-coupled demethylase assay was used to determine the demethylase activity and select the potent inhibitors. All inhibitors were dissolved in dimethyl sulfoxide (DMSO) at various concentrations, and added to the mixture that the final DMSO concentration is 5%. The reagents for demethylase reactions were dissolved in HEPES buffer (50 mM, pH 7.5), with the exception of Fe(II) solutions, which were made using (NH4)2Fe(SO4)2 dissolved in 20 mM HCl to make 400 mM stock solution. All the reagents were stored at −30° C. FDH, NAD+, H-TKQTARK(Me3)[…]-OH (TR-15, H33-17K9me3, Kelowna), DMSO, and KDM4B were added first to 96-well black immune plate (SPL Life Science) and incubated together on ice for 15 min. Then the plate was put into FLUOStar OPTIMA ELISA reader (BMG LABTECH) with 37° C., and the reaction was started by adding ascorbic acid (ascorbate), Fe(II), and α-ketoglutarate (AKG) to final concentration of 50 mM HEPES, pH 7.5, 2 μM of KDM4B, 5% DMSO, 0.01 U FDH (Sigma), 1 mM NAD+, 1 mM 2-OG, 2 mM ascorbate, and 50 μM Fe(II), various concentration of H3K9me3 peptide, and the final volume was 50 μl. Each reaction was incubated at 37° C. for 30 min and the production of NADH would be detected by using the fluorescence Ex 360/Em 470. […]

Compound	FDH Residual Activity (%) [1] [%]	Demethylase Residual Activity (%) (KDM4A)	Demethylase Residual Activity (%) (KDM4B)	also measured
O=[N+]([O-])c1cc([N+](=O)[O-])c(/C=C/c2ccc(Cl)c(Cl)c2)cc1/C=C/c1ccc(Cl)c(Cl)c1 [NSC636819]	>80	–	–	inhibitory mode (KDM4A; against H33-17K9me3): competitive; IC50 at 3 days (in vitro): 21.2 µM; apoptotic LNCaP cells (LNCaP cells [2]): 39.5%; demethylating activity toward H3K9me3 in cells (H3K9me3 in LNCaP cells; 5 μM): essentially completely blocked; cellular level of H3K9me3 (H3K9me3 in LNCaP cells; 24 hr, dose-dependent): notable increase; expression of oncogenes IGF1R, FGFR3, CCNE2, AURKA and AURKB (LNCaP cells [3]): down-regulation; expression of tumour suppressors RB1, CDH1 (LNCaP cells [3]): up-regulation; portion of the altered genes found to be androgen responsive genes (LNCaP cells [3]; ≥two-fold alterations, 178/656): 27%
O=C1C=CC=C/C1=C\Nc1cc(C(=O)O)cc(C(=O)O)c1 [NSC124029]	97	93	62	–
O=C1C=Cc2ccccc2/C1=N/Nc1ccc([N+](=O)[O-])cc1[N+](=O)[O-] [NSC15975]	>80	73	90	–
C/C(=N/Nc1ccc([N+](=O)[O-])cc1[N+](=O)[O-])c1ccccc1 [NSC6129]	>80	100	52	–
CCCCCC/C(C)=N/Nc1ccc([N+](=O)[O-])cc1[N+](=O)[O-] [NSC1018]	>80	85	62	–
O=C(O)c1ccnc(C(=O)O)c1 [PD2, pyridine 2,4-dicarboxylic acids, reference compound]	–	21	24	demethylation activity on histones (H3K9me3, H3K36me3 western blot) (KDM4A/KDM4B [4]): blocked the demethylation activity
C/C(CC(O)(C(F)(F)F)C(F)(F)F)=N/Nc1ccc([N+](=O)[O-])cc1[N+](=O)[O-] [NSC659196]	>80	92	56	–
O=C(O)c1ccc(O)c2ncccc12 [5-carboxy-8HQ]	–	–	–	IC50 (HeLa cells): 86.5 µM
O=C(O)c1ccc(C(=O)c2ccccc2C(=O)O)cc1C(=O)O [NSC28620]	>80	–	–	inhibitory effect on KDM4A/KDM4B (in words) (KDM4A/KDM4B [5]): completely lost the inhibitory effects
COC1CC(OC(=O)c2ccc([N+](=O)[O-])cc2)C(OC(=O)c2ccc([N+](=O)[O-])cc2)C(C)O1 (stereo not shown) [NSC107408]	>80	99	64	inhibitory effect on KDM4A/KDM4B (in words) (KDM4A/KDM4B [5]): no inhibition
COC(=O)C(C(=O)C(=O)Nc1ccc([N+](=O)[O-])cc1[N+](=O)[O-])c1nc2ccc(Cl)cc2[nH]c1=O (stereo not shown) [NSC640999]	>80	77	49	–
